According to the supplement of paper PMC10307832:

Columns and labels:
Experiment in all cases: relative viability (nuclei count vs DMSO), 5 days (fraction); higher = more cells survive
R406 + Decitabine = compound: COc1cc(Nc2ncc(F)c(Nc3ccc4c(n3)NC(=O)C(C)(C)O4)n2)cc(OC)c1OC [R406] + Nc1ncn([C@H]2C[C@H](O)[C@@H](CO)O2)c(=O)n1 [Decitabine] (partner 2 µM)
In short: (§1)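 Medians of duplicate plates are given as relative viability. That measure is the nuclei count in treated wells divided by the count in vehicle wells. Counts were taken on 4× images of lung cancer cell lines in 1536-well plates, 5 days after pin-tool dosing the day after seeding with one drug alone or a fixed anchor-drug dose plus five library-drug doses (not always all listed) in √10 steps.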

Daporinad + Linsitinib = compound: O=C(/C=C/c1cccnc1)NCCCCC1CCN(C(=O)c2ccccc2)CC1 [Daporinad] + C[C@]1(O)C[C@@H](c2nc(-c3ccc4ccc(-c5ccccc5)nc4c3)c3c(N)nccn32)C1 [Linsitinib] (partner 1 µM)
In short: as §1

R406 + Luminespib = compound: COc1cc(Nc2ncc(F)c(Nc3ccc4c(n3)NC(=O)C(C)(C)O4)n2)cc(OC)c1OC [R406] + CCNC(=O)c1noc(-c2cc(C(C)C)c(O)cc2O)c1-c1ccc(CN2CCOCC2)cc1 [Luminespib] (partner 0.01 µM)
In short: as §1

R406 + Phenformin = compound: COc1cc(Nc2ncc(F)c(Nc3ccc4c(n3)NC(=O)C(C)(C)O4)n2)cc(OC)c1OC [R406] + N=C(N)NC(=N)NCCc1ccccc1 [Phenformin] (partner 250 µM)
In short: as §1

LXF-289 was tested, and the relative viability (R406 + Decitabine; first compound 0.08 µM) was 0.386, the relative viability (R406 + Decitabine; first compound 0.253 µM) was 0.372 and the relative viability (R406 + Decitabine; first compound 0.8 µM) was 0.406. For the same cell line, the relative viability (R406 + Decitabine; first compound 2.53 µM) was 0.405, the relative viability (R406 + Decitabine; first compound 8 µM) was 0.396 and the relative viability (Daporinad + Linsitinib; first compound 0.0005 µM) was 0.904. It also gave a relative viability (Daporinad + Linsitinib; first compound 0.001581 µM) of 0.972, a relative viability (Daporinad + Linsitinib; first compound 0.005 µM) of 1 and a relative viability (Daporinad + Linsitinib; first compound 0.01581 µM) of 1.1. For the same cell line, the relative viability (R406 + Luminespib; first compound 0.08 µM) was 0.629, the relative viability (R406 + Luminespib; first compound 0.253 µM) was 0.733 and the relative viability (R406 + Luminespib; first compound 0.8 µM) was 0.713. For the same cell line, the relative viability (R406 + Luminespib; first compound 2.53 µM) was 0.447, the relative viability (R406 + Luminespib; first compound 8 µM) was 0.405 and the relative viability (R406 + Phenformin; first compound 0.08 µM) was 0.517. For the same cell line, the relative viability (R406 + Phenformin; first compound 0.253 µM) was 0.543, the relative viability (R406 + Phenformin; first compound 0.8 µM) was 0.533 and the relative viability (R406 + Phenformin; first compound 2.53 µM) was 0.38. It also gave a relative viability (R406 + Phenformin; first compound 8 µM) of 0.4.
Work on NCI-H23 yielded a relative viability (R406 + Decitabine; first compound 0.08 µM) of 0.258, a relative viability (R406 + Decitabine; first compound 0.253 µM) of 0.307 and a relative viability (R406 + Decitabine; first compound 0.8 µM) of 0.314. The relative viability (R406 + Decitabine; first compound 2.53 µM) was 0.308, the relative viability (R406 + Decitabine; first compound 8 µM) was 0.177 and the relative viability (Daporinad + Linsitinib; first compound 0.0005 µM) was 0.699. The relative viability (Daporinad + Linsitinib; first compound 0.001581 µM) was 0.518, the relative viability (Daporinad + Linsitinib; first compound 0.005 µM) was 0.537 and the relative viability (Daporinad + Linsitinib; first compound 0.01581 µM) was 0.279. The relative viability (R406 + Luminespib; first compound 0.08 µM) was 0.217, the relative viability (R406 + Luminespib; first compound 0.253 µM) was 0.251 and the relative viability (R406 + Luminespib; first compound 0.8 µM) was 0.228. It also gave a relative viability (R406 + Luminespib; first compound 2.53 µM) of 0.181, a relative viability (R406 + Luminespib; first compound 8 µM) of 0.168 and a relative viability (R406 + Phenformin; first compound 0.08 µM) of 0.693. It also gave a relative viability (R406 + Phenformin; first compound 0.253 µM) of 0.821, a relative viability (R406 + Phenformin; first compound 0.8 µM) of 0.775 and a relative viability (R406 + Phenformin; first compound 8 µM) of 0.355.
NCI-H522 showed a relative viability (R406 + Decitabine; first compound 0.08 µM) of 0.726, a relative viability (R406 + Decitabine; first compound 0.253 µM) of 0.688 and a relative viability (R406 + Decitabine; first compound 0.8 µM) of 0.762. The relative viability (R406 + Decitabine; first compound 2.53 µM) was 0.587, the relative viability (R406 + Decitabine; first compound 8 µM) was 0.616 and the relative viability (R406 + Luminespib; first compound 0.08 µM) was 1.09. The relative viability (R406 + Luminespib; first compound 0.253 µM) was 1.31, the relative viability (R406 + Luminespib; first compound 0.8 µM) was 1.32 and the relative viability (R406 + Luminespib; first compound 2.53 µM) was 0.841. It also gave a relative viability (R406 + Luminespib; first compound 8 µM) of 1.04, a relative viability (R406 + Phenformin; first compound 0.08 µM) of 0.595 and a relative viability (R406 + Phenformin; first compound 0.253 µM) of 0.595. The relative viability (R406 + Phenformin; first compound 0.8 µM) was 0.619, the relative viability (R406 + Phenformin; first compound 2.53 µM) was 0.553 and the relative viability (R406 + Phenformin; first compound 8 µM) was 0.583.
NCI-H1299 was tested, and the relative viability (Daporinad + Linsitinib; first compound 0.0005 µM) was 0.986, the relative viability (Daporinad + Linsitinib; first compound 0.001581 µM) was 1.14 and the relative viability (Daporinad + Linsitinib; first compound 0.005 µM) was 0.975. For the same cell line, the relative viability (Daporinad + Linsitinib; first compound 0.01581 µM) was 0.941.
NCI-H1563 was tested, and the relative viability (Daporinad + Linsitinib; first compound 0.0005 µM) was 1.29, the relative viability (Daporinad + Linsitinib; first compound 0.001581 µM) was 1.21 and the relative viability (Daporinad + Linsitinib; first compound 0.005 µM) was 1.07. The relative viability (Daporinad + Linsitinib; first compound 0.01581 µM) was 0.739, the relative viability (R406 + Luminespib; first compound 0.08 µM) was 0.542 and the relative viability (R406 + Luminespib; first compound 0.253 µM) was 0.654. The relative viability (R406 + Luminespib; first compound 0.8 µM) was 0.475, the relative viability (R406 + Luminespib; first compound 2.53 µM) was 0.485 and the relative viability (R406 + Luminespib; first compound 8 µM) was 0.452. The relative viability (R406 + Phenformin; first compound 0.08 µM) was 0.662, the relative viability (R406 + Phenformin; first compound 0.253 µM) was 0.664 and the relative viability (R406 + Phenformin; first compound 0.8 µM) was 0.682. For the same cell line, the relative viability (R406 + Phenformin; first compound 2.53 µM) was 0.511 and the relative viability (R406 + Phenformin; first compound 8 µM) was 0.445.
Cell Line NCI-H1648 has a relative viability (R406 + Decitabine; first compound 0.08 µM) of 0.53, a relative viability (R406 + Decitabine; first compound 0.253 µM) of 0.527 and a relative viability (R406 + Decitabine; first compound 0.8 µM) of 0.483. The relative viability (R406 + Decitabine; first compound 2.53 µM) was 0.515 and the relative viability (R406 + Decitabine; first compound 8 µM) was 0.36.
NCI-H1650 was tested, and the relative viability (R406 + Decitabine; first compound 0.08 µM) was 0.475, the relative viability (R406 + Decitabine; first compound 0.253 µM) was 0.407 and the relative viability (R406 + Decitabine; first compound 0.8 µM) was 0.359. The relative viability (R406 + Decitabine; first compound 2.53 µM) was 0.413, the relative viability (R406 + Decitabine; first compound 8 µM) was 0.411 and the relative viability (R406 + Luminespib; first compound 0.08 µM) was 0.185. For the same cell line, the relative viability (R406 + Luminespib; first compound 0.253 µM) was 0.196, the relative viability (R406 + Luminespib; first compound 0.8 µM) was 0.194 and the relative viability (R406 + Luminespib; first compound 2.53 µM) was 0.184. The relative viability (R406 + Luminespib; first compound 8 µM) was 0.182, the relative viability (R406 + Phenformin; first compound 0.08 µM) was 0.438 and the relative viability (R406 + Phenformin; first compound 0.253 µM) was 0.497. For the same cell line, the relative viability (R406 + Phenformin; first compound 0.8 µM) was 0.508, the relative viability (R406 + Phenformin; first compound 2.53 µM) was 0.154 and the relative viability (R406 + Phenformin; first compound 8 µM) was 0.146.
With NCI-H1703 the relative viability (Daporinad + Linsitinib; first compound 0.0005 µM) was 0.77, the relative viability (Daporinad + Linsitinib; first compound 0.001581 µM) was 1.27 and the relative viability (Daporinad + Linsitinib; first compound 0.005 µM) was 0.996. For the same cell line, the relative viability (Daporinad + Linsitinib; first compound 0.01581 µM) was 0.626.
With NCI-H2170 the relative viability (R406 + Decitabine; first compound 0.08 µM) was 0.437, the relative viability (R406 + Decitabine; first compound 0.253 µM) was 0.448 and the relative viability (R406 + Decitabine; first compound 0.8 µM) was 0.487. It also gave a relative viability (R406 + Decitabine; first compound 2.53 µM) of 0.41, a relative viability (R406 + Decitabine; first compound 8 µM) of 0.505 and a relative viability (R406 + Luminespib; first compound 0.08 µM) of 0.641. It also gave a relative viability (R406 + Luminespib; first compound 0.253 µM) of 0.622, a relative viability (R406 + Luminespib; first compound 0.8 µM) of 0.856 and a relative viability (R406 + Luminespib; first compound 2.53 µM) of 0.366. The relative viability (R406 + Luminespib; first compound 8 µM) was 0.574, the relative viability (R406 + Phenformin; first compound 0.08 µM) was 0.405 and the relative viability (R406 + Phenformin; first compound 0.253 µM) was 0.414. For the same cell line, the relative viability (R406 + Phenformin; first compound 0.8 µM) was 0.44, the relative viability (R406 + Phenformin; first compound 2.53 µM) was 0.316 and the relative viability (R406 + Phenformin; first compound 8 µM) was 0.372.
In the case of NCI-H2228, the relative viability (Daporinad + Linsitinib; first compound 0.0005 µM) is reported as 0.668, the relative viability (Daporinad + Linsitinib; first compound 0.001581 µM) is reported as 0.812 and the relative viability (Daporinad + Linsitinib; first compound 0.005 µM) is reported as 0.633. The relative viability (Daporinad + Linsitinib; first compound 0.01581 µM) was 0.951, the relative viability (R406 + Luminespib; first compound 0.08 µM) was 0.145 and the relative viability (R406 + Luminespib; first compound 0.253 µM) was 0.213. The relative viability (R406 + Luminespib; first compound 0.8 µM) was 0.103, the relative viability (R406 + Luminespib; first compound 2.53 µM) was 0.0925 and the relative viability (R406 + Luminespib; first compound 8 µM) was 0.0961. The relative viability (R406 + Phenformin; first compound 0.08 µM) was 0.318, the relative viability (R406 + Phenformin; first compound 0.253 µM) was 0.383 and the relative viability (R406 + Phenformin; first compound 0.8 µM) was 0.312. It also gave a relative viability (R406 + Phenformin; first compound 2.53 µM) of 0.106 and a relative viability (R406 + Phenformin; first compound 8 µM) of 0.0936.
Cell Line NCI-H2342 has a relative viability (R406 + Decitabine; first compound 0.08 µM) of 0.681, a relative viability (R406 + Decitabine; first compound 0.253 µM) of 0.768 and a relative viability (R406 + Decitabine; first compound 0.8 µM) of 0.759. It also gave a relative viability (R406 + Decitabine; first compound 2.53 µM) of 0.668, a relative viability (R406 + Decitabine; first compound 8 µM) of 0.691 and a relative viability (R406 + Luminespib; first compound 0.08 µM) of 0.757. It also gave a relative viability (R406 + Luminespib; first compound 0.253 µM) of 0.811, a relative viability (R406 + Luminespib; first compound 0.8 µM) of 0.819 and a relative viability (R406 + Luminespib; first compound 2.53 µM) of 0.581. It also gave a relative viability (R406 + Luminespib; first compound 8 µM) of 0.76, a relative viability (R406 + Phenformin; first compound 0.08 µM) of 0.66 and a relative viability (R406 + Phenformin; first compound 0.253 µM) of 0.623. The relative viability (R406 + Phenformin; first compound 0.8 µM) was 0.649, the relative viability (R406 + Phenformin; first compound 2.53 µM) was 0.525 and the relative viability (R406 + Phenformin; first compound 8 µM) was 0.535.
SW 900 gave a relative viability (R406 + Decitabine; first compound 0.08 µM) of 0.486, a relative viability (R406 + Decitabine; first compound 0.253 µM) of 0.469 and a relative viability (R406 + Decitabine; first compound 0.8 µM) of 0.446. It also gave a relative viability (R406 + Decitabine; first compound 2.53 µM) of 0.555, a relative viability (R406 + Decitabine; first compound 8 µM) of 0.173 and a relative viability (R406 + Luminespib; first compound 0.08 µM) of 0.18. It also gave a relative viability (R406 + Luminespib; first compound 0.253 µM) of 0.186, a relative viability (R406 + Luminespib; first compound 0.8 µM) of 0.177 and a relative viability (R406 + Luminespib; first compound 2.53 µM) of 0.125. It also gave a relative viability (R406 + Luminespib; first compound 8 µM) of 0.117, a relative viability (R406 + Phenformin; first compound 0.08 µM) of 0.53 and a relative viability (R406 + Phenformin; first compound 0.253 µM) of 0.662. The relative viability (R406 + Phenformin; first compound 0.8 µM) was 0.792, the relative viability (R406 + Phenformin; first compound 2.53 µM) was 0.189 and the relative viability (R406 + Phenformin; first compound 8 µM) was 0.215.
